Data taken from patent publication US11324798B2, “Materials and methods for treatment of inflammation” (CYTOGEL PHARMA, LLC, priority 2010, dated 2022).

Test system: mu opiate receptor
Experiment: Binding to the mu opiate receptor

## H-Tyr-Pro-Trp-Phe-NH2 [SEQ ID NO:1]
  Potency for the mu opiate receptor: very potent
